According to ChEMBL document CHEMBL1138140, “Inhibition of DNA helicases with DNA-competitive inhibitors” (Bioorg Med Chem Lett, 2006):

Tests used:
Assay type in all cases: functional
[1] = target: T1, DNA helicase IV (Escherichia coli K-12) (UniProt P15038); test: Inhibition of helicase activity of Helicase4 from Escherichia coli at 10 uM
T1 sequence (whole entry): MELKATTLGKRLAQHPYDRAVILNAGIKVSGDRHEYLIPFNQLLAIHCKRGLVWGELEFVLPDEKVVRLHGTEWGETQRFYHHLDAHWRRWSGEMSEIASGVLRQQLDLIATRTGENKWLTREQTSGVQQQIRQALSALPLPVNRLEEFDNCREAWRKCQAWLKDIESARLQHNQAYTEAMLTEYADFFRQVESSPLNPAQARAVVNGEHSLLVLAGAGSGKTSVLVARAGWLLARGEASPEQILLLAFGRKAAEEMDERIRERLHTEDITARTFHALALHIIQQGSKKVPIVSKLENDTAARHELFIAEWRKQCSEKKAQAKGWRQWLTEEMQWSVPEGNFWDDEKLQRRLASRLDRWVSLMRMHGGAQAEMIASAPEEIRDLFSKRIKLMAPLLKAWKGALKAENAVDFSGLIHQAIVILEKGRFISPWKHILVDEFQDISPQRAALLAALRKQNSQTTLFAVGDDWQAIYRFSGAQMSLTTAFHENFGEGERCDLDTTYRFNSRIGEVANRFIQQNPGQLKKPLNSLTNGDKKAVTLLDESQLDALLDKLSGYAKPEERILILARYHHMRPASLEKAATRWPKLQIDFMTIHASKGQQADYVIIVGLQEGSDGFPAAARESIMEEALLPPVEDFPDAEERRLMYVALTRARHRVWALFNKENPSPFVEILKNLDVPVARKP

[2] = target: T1, DNA helicase IV (Escherichia coli K-12); test: Inhibition of ATPase activity of Helicase4 from Escherichia coli at 10 uM
DNA helicase IV [3] = target: T2, DNA helicase IV (Escherichia coli K-12, UniProt P15038); test: Inhibition of ATPase activity of Helicase4 from Escherichia coli in presence of ATP (5x Km(ATP)) and dT25 (5x KDNA)
T2 sequence (P15038 whole entry): T1 sequence (whole entry)

DNA helicase IV [4] = target: DNA helicase IV (Escherichia coli K-12, UniProt P15038, Y473A); test: Inhibition of ATPase activity of Tyr473Ala mutated Helicase4 in presence of ATP (5x Km(ATP)) and dT25 (5x KDNA)
Sequence of DNA helicase IV (Escherichia coli K-12, UniProt P15038, Y473A) (P15038 whole entry Y473A): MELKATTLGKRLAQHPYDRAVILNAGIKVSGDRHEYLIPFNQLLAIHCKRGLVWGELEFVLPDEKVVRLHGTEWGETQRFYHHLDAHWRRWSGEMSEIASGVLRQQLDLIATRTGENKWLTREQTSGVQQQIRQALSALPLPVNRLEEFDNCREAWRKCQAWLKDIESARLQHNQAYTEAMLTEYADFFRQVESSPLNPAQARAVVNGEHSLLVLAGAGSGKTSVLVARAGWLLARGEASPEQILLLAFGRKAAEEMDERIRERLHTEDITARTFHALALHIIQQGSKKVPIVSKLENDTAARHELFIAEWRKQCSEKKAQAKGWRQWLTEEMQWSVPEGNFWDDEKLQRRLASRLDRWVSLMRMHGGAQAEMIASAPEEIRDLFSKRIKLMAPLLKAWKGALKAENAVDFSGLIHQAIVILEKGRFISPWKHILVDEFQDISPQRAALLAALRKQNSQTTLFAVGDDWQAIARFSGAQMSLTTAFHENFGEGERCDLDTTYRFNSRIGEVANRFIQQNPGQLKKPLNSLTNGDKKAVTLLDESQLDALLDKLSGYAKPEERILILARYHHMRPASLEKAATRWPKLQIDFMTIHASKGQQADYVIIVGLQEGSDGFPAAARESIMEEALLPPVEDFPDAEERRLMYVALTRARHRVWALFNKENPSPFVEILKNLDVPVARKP

Structure (SMILES)	inhibition [1] [%]	inhibition [2] [%]	IC50 (DNA helicase IV [3]) [µM]	IC50 (DNA helicase IV [4]) [µM]
CCOC(=O)Cc1ccc2c(c1)C(=O)c1ccccc1CS2	5	0		
Cc1ccc2c(c1)CSc1ccc(CC(=O)O)cc1C2=O	53	78	7	
O=C(O)Cc1ccc2c(c1)C(=O)c1ccccc1CS2	79	93	5	5.5
CC(C(=O)O)c1ccc2c(c1)C(=O)c1ccccc1CS2 (configuration not stated)	93	98	3	
O=C(O)Cc1ccc2c(c1)C(=O)c1ccccc1C[S+]2[O-] (configuration not stated)	0	2		
CC(=O)Nc1ccc2c(c1)C(=O)c1cc(CC(=O)O)ccc1SC2	89	99	1.4	
